Results reported in the METLIN SMRT retention time set (Domingo-Almenara et al. 2019).

Assay: gradient 5% acetonitrile 3 min, to 50% in 2 min, to 85% in 15 min, held 3 min, 100 µL/min
Details: column: Zorbax Extend-C18 2.1 x 50 mm; eluents: water / acetonitrile, 0.1% formic acid
Outline: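 Using water and acetonitrile that each contained 0.1% formic acid, mixtures of ~100 pure standards were separated at 100 μL/min on a Zorbax Extend-C18 column (2.1 × 50 mm, 1.8 μm). The HPLC fed a quadrupole time-of-flight mass spectrometer working in positive and negative ionization mode, with dead and dwell volumes of 40 μL and 900 μL. Data were acquired over 3 months. Retention time was read from computationally picked adduct peaks after manual inspection of each.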

Row | RP-LC retention time [s] | SMILES
1 | 885 | COc1cccc(C(=O)N2CCCn3nc(-c4ccc(C)cc4)cc3C2)c1OC
2 | 1000 | Cc1ccc(Cn2nc3c(S(=O)(=O)N4CCCCCC4)cccn3c2=O)cc1
3 | 703 | Cn1c2c(c3ccccc31)C(C(=O)NCc1ccc(F)cc1)N(Cc1cccnc1)C(=O)CS2 (stereo not given)
4 | 923 | CCCn1cc(CCNS(=O)(=O)c2ccccc2CC)c2cccnc21
5 | 561 | Cn1ncc2c3ccccc3n(CC(=O)NCCCN3CCCCCC3)c2c1=O
6 | 726 | Cc1ccc(NC(=O)c2cccc3c2SCCC3=O)nc1
7 | 854 | CCOc1cccc(CNC(=O)c2nc(N3CCSCC3)c3cnn(C)c3n2)c1
8 | 891 | CCOC(=O)N1CCN(c2cnc3cc(S(=O)(=O)N4CCCCC4)ccc3n2)CC1
9 | 637 | Cc1cc2n(n1)CCC(=O)N2CCCC(=O)NCc1cccs1
10 | 1020 | O=C(NCCCN1CCCc2ccccc21)c1nnc(-c2ccc(S(=O)(=O)N3CCCC3)cc2)o1
11 | 721 | O=C(NCc1ccco1)C1CCCN(c2nc3ccccc3[nH]c2=O)C1 (stereo not given)
12 | 797 | Cc1ccc(CNC(=O)CC2CCN(C(=O)c3[nH]c(C)cc3C)CC2)cc1
13 | 718 | CCc1csc(-c2ccc(S(=O)(=O)NCCN3CCC(C)CC3)s2)n1
14 | 814 | CC1=C(c2ccc(F)cc2)S(=O)(=O)N=C1N1CCCN(C(=O)CC(C)C)CC1
15 | 1100 | Cc1cc2c(C)c(C(=O)N3CCCCC3)oc2c(S(=O)(=O)N2CCN(c3ncccn3)CC2)c1C
16 | 751 | Cn1ncc(N2CCCC(C(=O)NC3CCCCCCC3)C2)cc1=O (stereo not given)
17 | 731 | Cc1nc(NC2=NCN(CCc3cccs3)CN2)nc2ccccc12
18 | 947 | Cc1ccc(NC(=O)N2CCCC(CCC(=O)NCCC3=CCCCC3)C2)cc1 (stereo not given)
19 | 670 | CCCNC(=O)C1CCN(c2ccc(SCC(=O)Nc3ccc(F)cc3F)nn2)CC1
20 | 1160 | Cc1ccc(S(=O)(=O)N2CCCCC2)cc1-c1nnc(-c2ccccc2Cl)o1
21 | 821 | O=C(C1=CN(c2ccccc2)c2ccccc2S1(=O)=O)N1CCCCC1
22 | 582 | O=C(Cc1cc(-c2ccc(Cl)cc2)on1)NCCCn1ccnc1
23 | 672 | CCCNC(=O)C1CCCN(c2ccc(SCC(=O)Nc3ccc(C(=O)OC)cc3)nn2)C1 (stereo not given)
24 | 969 | CC(C)CCNC(=O)C1CCCN(c2nccn3nc(-c4ccccc4Cl)cc23)C1 (stereo not given)
25 | 762 | O=C(NCC1(c2ccccc2)CCOCC1)C(=O)Nc1cc2c3c(c1)CCC(=O)N3CCC2
26 | 606 | CN(C)CCn1ccc2ccn(CC(=O)NCc3ccccc3)c(=O)c21
27 | 975 | COCCn1cc2c3c(cccc31)CN(C(=O)Cc1ccccc1Cl)CC2
28 | 695 | Cc1ccc(CNC(=O)CN2CCN(C(=O)Nc3ccc(F)cc3)CC2=O)o1

The remaining lines, values behind:

Row | SMILES | RP-LC retention time [s]
29 | COc1ccc(NC(=O)Cn2c(C)cc(-c3nnc(-c4ccccc4)o3)c2C)cc1 | 927
30 | CCOc1ccc(N2CC(c3nc(-c4cc(OC)c(OC)c(OC)c4)no3)CC2=O)cc1 (stereo not given) | 954
31 | CCN(CC)c1nc(C(=O)Nc2ccccc2OC)nc2nc(C)cc(C)c12 | 732
32 | COCCNC(=O)Nc1cccn2c(C)nnc12 | 556
33 | CN1C(=O)c2cccn2CC1C(=O)Nc1cccc(Cl)c1 (stereo not given) | 730
34 | CSc1c(N(C)C)c(=O)c1=S | 756
35 | CCOC(=O)c1ccc(Nc2c(-c3cccc(Br)c3)nc3cnccn23)cc1 | 986
36 | COc1ccc(S(=O)(=O)NCCc2noc(C)n2)cc1 | 709
37 | CN(Cc1ccccc1)C(=O)C1c2ccccc2C(=O)N(C)C1c1cccs1 (stereo not given) | 877
38 | COc1cccc(Nc2nc(C)c(C(=O)Nc3ccc(F)cc3F)s2)c1 | 955
39 | COc1cccc(-n2cc(C(=O)OCc3ccccn3)c3ccccc3c2=O)c1 | 854
40 | CC(C)c1ccc(NC(=O)N2CCN(c3ccc4nncn4n3)CC2)cc1 | 672
41 | Cc1ccc(Nc2nc(C)cc(N3CCN(S(=O)(=O)c4cc(F)ccc4C)CC3)n2)cc1 | 823
42 | Cc1cc(Nc2nc(N[C@@H](C)c3ncc(F)cn3)ncc2Cl)n[nH]1 | 622
43 | COc1ccc2c(c1)C1(CCN(C(=O)c3ccc(F)cc3)C1)C(=O)N2 (stereo not given) | 714
44 | Cc1sc(-c2cc(C(F)(F)F)[nH]n2)cc1S(=O)(=O)N1CCN(c2ccccc2)CC1 | 1110
45 | CCOc1ccc(OCC)c(NC(=O)C2CCN(S(=O)(=O)c3cn(C(C)C)cn3)CC2)c1 | 888
46 | O=C(Nc1ccc2c(c1)OCO2)c1noc2c1CCCCC2 | 967
47 | Cc1nnc(C2CCCN(C(=O)CCc3c(C)noc3C)C2)s1 (stereo not given) | 606
48 | O=C(NCCc1csc(-c2ccc(F)cc2)n1)Nc1ccccc1C(F)(F)F | 948
49 | CCn1c(=O)c(C)nc2cc(-c3noc(-c4cccc(N(C)C)c4)n3)ccc21 | 1170

Row | SMILES | RP-LC retention time [s]
50 | O=C(NC1CC1)C1CC(=O)N(c2ccc3c(c2)CCN3C(=O)C2CCC2)C1 (stereo not given) | 660
51 | CCn1cnc(S(=O)(=O)N2CCC(C(=O)Nc3cc(C)cc(C)c3)CC2)c1 | 797
52 | Fc1ccccc1N1CCN(c2ncc3c(n2)CCN(Cc2ccc4c(c2)OCCO4)C3)CC1 | 779
53 | CCOc1ccc(-c2csc(Cc3nc(-c4ccc(OC)cc4)no3)n2)cc1 | 1230
54 | COc1ccc(-c2noc(Cc3nnc(-c4cccc(C)c4)o3)n2)cc1OC | 945
55 | Cc1cc(S(=O)(=O)Nc2cccnc2)c(Cl)cc1Cl | 714
56 | CCc1noc(NC(C)=O)c1-c1ccc(C)c(S(=O)(=O)Nc2ccc(C)cc2Cl)c1 | 914
57 | COc1ccc(C)cc1NC(=O)N1CCC2(CC1)NC(=O)c1ccc(Cl)cc1N2 | 806
58 | COc1cccc(NC(=O)N2CCOc3ccc(C)cc32)c1 | 968
59 | Fc1cccc(Cc2noc(-c3nc(-c4ccccc4)no3)n2)c1 | 1160
60 | Cc1cc(C(=O)Nc2nc(-c3cccc(Cl)c3)c(C)s2)no1 | 1140
61 | O=C(c1nc2nc(-c3ccco3)cc(C(F)(F)F)n2n1)N1CCN(c2ccccn2)CC1 | 630
62 | CC1CCC(NC(=O)C2CCCN(S(=O)(=O)c3c[nH]c(C(=O)N4CCCC4)c3)C2)CC1 (stereo not given) | 784
63 | Cc1ccc(-c2csc(NC(=O)COc3ccc(Cl)cc3C)n2)cc1 | 1350
64 | O=C(C(=O)N1CCN(c2ccc(F)cc2)CC1)c1ccc[nH]1 | 753
65 | Cc1ccc(C)c(N2CCN(Cc3nc(-c4ccc(N5CCCC(C)C5)nc4)no3)CC2)c1 (stereo not given) | 1280
66 | Cc1ccc(C)c(CNC(=O)C2CC(=O)N(c3ccc4oc(C)nc4c3)C2)c1 (stereo not given) | 753
67 | CCOc1ccc2c(n1)CCN(C(=O)C1(c3ccc(OC)cc3)CC1)C2 | 683
68 | Cc1ccc(Nc2c(-c3ccc(Cl)cc3)nc3cnccn23)c(C)c1 | 1080
69 | Cc1ccc(-c2nc(N)n(C(=O)C3CC3)n2)cc1C | 962
70 | Cc1ccc(C)c(NC(=O)c2c(C)sc3ncnc(N4CCCC(C)C4)c23)c1 (stereo not given) | 1240

Row | SMILES | RP-LC retention time [s]
71 | O=C(Nc1cnc(-c2ccc(F)cc2)nc1)c1ccccc1 | 961
72 | Cc1ccc(NC(=O)Cn2ccc3ccc(-c4nnc(C)o4)cc32)cc1 | 824
73 | CCOC(=O)c1noc2ncnc(NCc3ccc(OC)cc3)c12 | 938
74 | CC1=NS(=O)(=O)c2cccnc2N1c1cccc(Br)c1 | 825
75 | COCCn1nc(N2CCCC(NS(=O)(=O)c3c(C)c(C)cc(C)c3C)C2)ccc1=O (stereo not given) | 875
76 | CN(C)c1ccc(-c2nn3c(CSc4ccccc4)nnc3s2)cc1 | 1080
77 | COc1ccc(N2CCN(C(=O)CCc3nnc4c5cc(-c6ccccc6)nn5ccn34)CC2)cc1 | 730
78 | Cc1c(C(=O)N(C)C)cnn1-c1ccc(-c2nc(C3CC3)no2)cn1 | 790
79 | Cc1ccc(CNC(=O)C(C)C2CCOCC2)o1 (stereo not given) | 677
80 | O=C(Nc1ccc(Cl)cc1)N1CCC(n2cnc3cc(F)ccc3c2=O)CC1 | 848
81 | Cc1ccc(NC(=O)Nc2c(-c3ccncc3)nc3ccccn23)cc1C | 632
82 | O=C(C1CC1)N1CCCC(OCc2nc(-c3ccncc3)no2)C1 (stereo not given) | 619
83 | O=C(c1ccc(Br)o1)N1c2ccccc2CC1c1nnc(C2CCOCC2)o1 (stereo not given) | 804
84 | Cc1ccc(C2NC(=O)N(C)C3=C2C(=O)N(C(CC(C)C)C(=O)N2CCOCC2)C3)c(C)c1 (stereo not given) | 708
85 | O=S(=O)(Nc1ccc(F)cc1Cl)c1c[nH]c2ncccc12 | 740
86 | CCc1nc(-n2cccc2)sc1C(=O)Nc1cc(C)ccc1F | 1180
87 | CC(C)C(=O)N1CCN(c2ccc(Nc3c4c(nc5nc(-c6ccccc6)nn35)CCCC4)cc2)CC1 | 898
88 | O=C(Nc1ccc(OCc2nnc(-c3ccc(Cl)cc3)o2)cc1)c1ccsc1 | 958
89 | COc1ccc(NC(=O)N2CCC3(CC2)N=C(c2ccc(F)cc2)C(=O)N3)c(OC)c1 | 773
90 | Cc1cccc2nc(-c3c(F)cccc3Cl)c(Nc3ccc4c(c3)OCO4)n12 | 697
